Data published in patent EP0505937A1, “Flavone derivatives, a process for the preparation thereof and pharmaceutical compositions containing them” (GEYMONAT S.p.A., priority 1991, dated 1992).
Where two headings read alike, the source gives them in different places.

Biological target: T1, porcine pancreatic elastase (Sus scrofa, UniProt P00772)
T1 construct: purchased Sigma n.E. 0.127
Experiment: antielastase activity (method of Bieth and coll., cleavage of N-succinyl-L-alanyl-L-alanyl-L-alanyl-para-nitroanilide, UV at 410 nm)
Format: biochemical
Protocol: The antielastase activity of compounds (I) was evidenced by the method described by Bieth and coll. (Biochim. med. [formula] 350 (1974)), with slight changes when the test compounds were poorly water-soluble.
The determination of the antielastase activity was carried out using porcine pancreatic elastase (90 U/mg/weight; 120 U/mg protein-biuret-n.E. 0.127 Sigma) as the enzyme in solution. The enzyme-containing solution was prepared dissolving the enzyme in 0,2 M phosphate buffer, pH 8, to a final concentration of 1 microgram/ml.
The substrate solution was N-succinyl-L-alanyl-L-alanyl-L-alanyl-para-nitroanilide (available from Sigma cat. N.S. 4760). The substrate was dissolved in dimethylsulfoxide to a concentration of […] (125 mM).
The procedure to determine the antielastase activity consisted of the following steps: • 2,9 ml of the enzyme solution with antielastase activity were placed into a quartz cuvette with 10 mm optical path, then 0,5 ml of bidistilled water were added. This standard solution was subsequently added with the different solutions of the various inhibitors.
The test solutions (standard and standard + inhibitor) were incubated at 30°C for 10', then 20 µl of substrate were added and the solution in the cuvette was stirred. The UV spectrum was recorded at 410 nm for 10' with a Beckman mod. 24 spectrophotometer against a blank consisting of the same enzyme-free standard solution.

[1] = enzyme 1 microgram/ml in 0,2 M phosphate buffer, pH 8, incubated at 30°C for 10', read-out: I₅₀ (converted)

T1 sequence (P00772 27-266): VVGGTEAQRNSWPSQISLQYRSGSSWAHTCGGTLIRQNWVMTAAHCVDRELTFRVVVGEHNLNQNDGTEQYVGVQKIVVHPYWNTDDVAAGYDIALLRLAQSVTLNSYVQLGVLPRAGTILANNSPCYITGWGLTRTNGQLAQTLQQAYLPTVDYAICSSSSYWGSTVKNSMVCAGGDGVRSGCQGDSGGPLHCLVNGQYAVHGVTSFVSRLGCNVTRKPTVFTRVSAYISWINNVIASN

Row | SMILES | IC50 [1] | other results
1 | COc1ccc(-c2cc(=O)c3c(O)cc(O[C@@H]4O[C@H](CO[C@@H]5O[C@@H](C)[C@H](O)[C@@H](O)[C@H]5O)[C@@H](O)[C@H](O)[C@H]4O)cc3o2)cc1O [Diosmin] |  | antielastase activity (at the minimum concentration obtained (about 10 mg/ml)): absence of any antielastase activity
2 | COc1ccc([C@@H]2CC(=O)c3c(O)cc(O[C@@H]4O[C@H](CO[C@@H]5O[C@@H](C)[C@H](O)[C@@H](O)[C@H]5O)[C@@H](O)[C@H](O)[C@H]4O)cc3O2)cc1O [Esperidin] |  | IC50: 934 µM
3 | COc1ccc(-c2cc(=O)c3c(O)cc(O[C@@H]4O[C@H](CO[C@@H]5O[C@@H](C)[C@H](O)[C@@H](O)[C@H]5O)[C@@H](O)[C@H](O)[C@H]4O)cc3o2)cc1OCCO [Hydrosmin, 3'-hydroxyethyldiosmin] | 955 µM | 
4 | C[C@@H]1O[C@@H](OC[C@H]2O[C@@H](Oc3c(-c4ccc(O)c(O)c4)oc4cc(O)cc(O)c4c3=O)[C@H](O)[C@@H](O)[C@@H]2O)[C@H](O)[C@H](O)[C@H]1O [Rutin] | 983 µM | 
